Measurements taken from PubChem BioAssay AID1189 (EPA DSSTox, 2008).
Activity calls are given as the source filed them.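 Rule for the calls: active = a tumor-causing dose value with its tumor site reported for any sex and species group of a rodent or other animal cancer study; inconclusive = only studies judged inadequate by the national testing program; inactive = tested in at least one study, none positive.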

Assay: DSSTox (CPDBAS) Carcinogenic Potency Database Summary SingleCellCall Results
Details: animal chronic carcinogenicity bioassays, CPDB summary call
Procedure, shortened: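 Literature-derived summary: each substance receives an overall carcinogenic/non-carcinogenic category drawn from long-term bioassays in rats, mice, hamsters, dogs or primates, using the most positive sex-species experiment and minimal evidence criteria.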

Structure (SMILES)	outcome
Cc1ccc2c(-c3ccccc3)nc(=O)n(C(C)C)c2c1	inactive
CCOC(=O)C(C)(C)Oc1ccc(Cl)cc1	active
CC(C)Cc1ccc(C(C)C(=O)O)cc1 (configuration not stated)	inactive
C=CCCl	inactive; active
CCNc1nc(Cl)nc(NCC)n1	inactive
O=S(=O)(O)c1cc(S(=O)(=O)O)c2c(N=Nc3ccccc3)c(O)ccc2c1	inactive
CC(=O)OC[C@H]1O[C@H](O[C@]2(COC(C)=O)O[C@H](COC(=O)C(C)C)[C@@H](OC(=O)C(C)C)[C@@H]2OC(=O)C(C)C)[C@H](OC(=O)C(C)C)[C@@H](OC(=O)C(C)C)[C@@H]1OC(=O)C(C)C	inactive
O=CCBr	inactive; active
CC(=O)CN(N=O)C(N)=O	active
COc1ccc([N+](=O)[O-])cc1N=Nc1c(O)c(C(=O)Nc2cccc([N+](=O)[O-])c2)cc2ccccc12	inactive; active
CC(C)n1c(/C=C/[C@@H](O)C[C@@H](O)CC(=O)O)c(-c2ccc(F)cc2)c2ccccc21	active
CC(=O)CN(N=O)C(=O)NCCCl	active
C[C@]12C/C(=C/O)C(=O)C[C@@H]1CC[C@@H]1[C@@H]2CC[C@@]2(C)[C@H]1CC[C@]2(C)O	active
O=[N+]([O-])O	inactive; active
CCN(CC)C(C)=O	active
NNCc1ccccc1	active
NNCCO	active; inactive
O=c1cc(CO)occ1O	active
Nc1ccc(Oc2ccc(N)cc2)cc1	active
Cc1ccccc1N	active
CC1CN(/N=C/c2ccc([N+](=O)[O-])o2)C(=O)N1 (configuration not stated)	active
O=CCCl	active

Structure (SMILES)	outcome
Cc1cc(O)c(C)c2c1OC(C)(CCCC(C)CCCC(C)CCCC(C)C)CC2 (configuration not stated)	active
Nc1ccccc1-c1ccccc1	active; inactive
C[N+](C)(C)CCO	inactive
CCCCC(C)(O)C/C=C/[C@H]1[C@H](O)CC(=O)[C@@H]1CCCCCCC(=O)OC (some centres not stated)	inactive; active
Cc1ccc(N)c(C)c1	active
CCCCN(N)CCCC	active
Cc1cccc(C)c1N	inactive; active
CCS(=O)(=O)c1ccc(S(N)(=O)=O)c2ccccc12	active
O=C(O)Cc1cccc2ccccc12	inactive; active
NNc1nc(-c2ccccc2)cs1	inactive
CCCCCCN(N=O)C(N)=O	active; inactive
Cc1cc(Cc2cc(C)cc(C(C)(C)C)c2O)c(O)c(C(C)(C)C)c1	inactive; active
ClC1(Cl)C2(Cl)C3C4(Cl)C1(Cl)C1(Cl)C4(Cl)C(Cl)(Cl)C3(Cl)C21Cl (configuration not stated)	active; inactive
C=CC(O)c1ccc2c(c1)OCO2 (configuration not stated)	active
C=C(C)CCl	active; inactive
CN(C)CCOc1ccc(/C(=C(/CCCl)c2ccccc2)c2ccccc2)cc1	inactive
CCn1cc(C(=O)O)c(=O)c2ccc(C)nc21	active
CC#N	inactive
FCC(F)(F)F	active
C=CCOC(=O)c1ccccc1C(=O)OCC=C	inactive
Cc1ccc(NC(N)=O)cc1	active
CN(C)c1ccc(N=NS(=O)(=O)O)cc1	inactive

Structure (SMILES)	outcome
O=C(C1CCCCC1)N1CC(=O)N2CCc3ccccc3C2C1 (configuration not stated)	inactive
O=C/C=C/c1ccccc1	inactive
CC(C)OC(=O)Nc1cccc(Cl)c1	inactive; active
O[C@H]([C@H](O)[C@@H](O)CBr)[C@H](O)CBr	active; inactive
[Cl-].[Cl-].[Hg+2]	active
Nc1ccc([N+](=O)[O-])cc1	inactive; active
[Na+]	inactive
O=NN(c1ccccc1)c1ccccc1	active; inactive
c1ccc(Nc2ccc3ccccc3c2)cc1	inactive
CN(C)CCN(Cc1ccsc1)c1ccccn1	inactive; active
O=C(O)c1ccc([N+](=O)[O-])cc1	active
CC/C(C)=N/O	active; inactive
COc1cc2c(cc1N)oc1ccccc12	active
COc1cc(N=Nc2ccccc2)ccc1N	active; inactive
O=[N+]([O-])c1ccc(-c2nc(N(CCO)CCO)c3ccccc3n2)s1	active; inactive
ClC1=C(Cl)C(Cl)(Cl)C(Cl)=C1Cl	inactive; active
O=c1cc[nH]c(=S)[nH]1	active; inactive
O=C1c2ccccc2C(=O)N1SC(Cl)(Cl)Cl	active
O=c1[nH]c(=O)n(C2CCCO2)cc1F (configuration not stated)	inactive
CC(COc1ccc(C(C)(C)C)cc1)OS(=O)OCCCl (configuration not stated)	active
C/C=C/C=O	active
ClC(Cl)C(Cl)Cl	active

Structure (SMILES)	outcome
CN(C)/N=N/c1nc[nH]c1C(N)=O	active
CN(C)NC(=O)CCC(=O)O	active
CCc1cc(C(N)=S)ccn1	active; inactive
CCSC[C@H](N)C(=O)O	inactive
NC(=O)N(CC(=O)O)N=O	active; inactive
Nc1nc(N)c2nc(-c3ccccc3)c(N)nc2n1	active; inactive
N[C@@H](Cc1c[nH]c2ccccc12)C(=O)O	inactive
CN(C)N=Nc1ccccc1	active
[N-]=[N+]=O	inactive
C=CC(OC(C)=O)c1ccc2c(c1)OCO2 (configuration not stated)	active
C#C[C@@]1(O)CC[C@H]2[C@@H]3CCC4=CCCC[C@@H]4[C@H]3CC[C@@]21C	active
Cc1ccc2c(c1[N+](=O)[O-])C(=O)c1ccccc1C2=O	active
O=C1C(Cl)=C(Cl)C(=O)c2ccccc21	inactive
ClC(Cl)=C(Cl)c1c(Cl)c(Cl)c(Cl)c(Cl)c1Cl	inactive
O=S1OCCO1	inactive
CCn1cc(C(=O)O)c(=O)c2cc3c(cc21)OCO3	active
O=NN1CCNCC1	active; inactive
NC(=S)NNC(N)=S	inactive
O=c1[nH]nc(-c2ccc([N+](=O)[O-])o2)o1	active; inactive
CC(N)=O	active; inactive
CCCCCCCCCCCCCCCC(=O)OC/C=C(C)/C=C/C=C(C)/C=C/C1=C(C)CCCC1(C)C	inactive
C[C@@H]1C[C@H](C)CN(S(=O)(=O)c2ccc(Cl)c(C(=O)O)c2)C1	active

Structure (SMILES)	outcome
Nc1ccc(-c2ccc(N)c(O)c2)cc1O	active
NC(CCC(=O)O)C(=O)O (configuration not stated)	inactive; active
COP(=S)(OC)SCn1nnc2ccccc2c1=O	inactive
C=CCOC(=O)CC(C)C	active
CC(C)(CO)CCCCCCC(C)(C)CO	inactive
C=C(Cl)CSC(=S)N(CC)CC	active; inactive
Cc1cccc(Nc2cc(Cl)nc(SCC(=O)NCCO)n2)c1C	active; inactive
C1COCCO1	active; inactive
NCCCCCCCCCCC(=O)O	active
CC(C)CON=O	active
COc1ccccc1N1CCN(CCCNc2cc(=O)n(C)c(=O)n2C)CC1	inactive
ClC(Cl)=C(Cl)C(Cl)=C(Cl)Cl	active
CN1CCCC1=O	active
CC(C)(C)c1cc(C(C)(C)C)c(O)c(C(C)(C)C)c1	inactive
CCCCCN(CCCCC)N=O	active; inactive
O=C1NC(c2ccc([N+](=O)[O-])s2)Nc2ccccc21 (configuration not stated)	active
Clc1cc(Cl)cc(-c2cc(Cl)cc(Cl)c2)c1	inactive
COC(=O)[C@H]1[C@H]2C[C@@H]3c4[nH]c5ccccc5c4CCN3C[C@H]2C[C@@H](OC(=O)c2cc(OC)c(OC)c(OC)c2)[C@@H]1OC	inactive
[O]N=O	inactive
CC1CN(N=O)CC(C)O1 (configuration not stated)	active
Cc1cc(=O)n(-c2ccccc2)n1C	active; inactive
COc1ccc(C(c2ccc(OC)cc2)C(Cl)(Cl)Cl)cc1	inactive; active

Structure (SMILES)	outcome
C[C@]12CC[C@@H]3c4ccc(OC(=O)Cc5ccc(N(CCCl)CCCl)cc5)cc4CC[C@H]3[C@@H]1CC[C@@H]2OC(=O)Cc1ccc(N(CCCl)CCCl)cc1	active
CCCCCN(N=O)C(=N)N[N+](=O)[O-]	inactive
O=[N+]([O-])c1cc([N+](=O)[O-])c(Cl)c(Cl)c1Cl	inactive
CCNC(=O)N(CCN(C)C)N=O	active
CCCCCCCCCCCCCCCC(=O)CC(=O)CCCCCCCCCCCCCCC	active
O.O=S(=O)([O-])[O-].[Mn+2]	inactive
COC(=O)C(c1ccccc1)C1CCCCN1 (configuration not stated)	active
CC(=O)Nc1ccc(-c2ccc(F)cc2)cc1	active
c1ccc2c(c1)Nc1ccccc1S2	inactive
c1cc(OCC2CO2)cc(OCC2CO2)c1 (configuration not stated)	active
COC(=O)C1=C(C)NC(C)=C(C(=O)OCC(C)(C)CN(C)Cc2ccccc2)C1c1cc([N+](=O)[O-])ccc1F (configuration not stated)	inactive
COC(=O)C1=C(C)NC(C)=C(C(=O)OCCN2CCN(C(c3ccccc3)c3ccccc3)CC2)C1c1cccc([N+](=O)[O-])c1 (configuration not stated)	inactive
O=C(O)c1ccc(O)c(O)c1	inactive
CN[C@H]1CC[C@@H](c2ccc(Cl)c(Cl)c2)c2ccccc21	inactive
CN(C)c1ccc(C(=N)c2ccc(N(C)C)cc2)cc1	active
CC[N+]([O-])=NC	active
C=CC(OCC)OCC	inactive
Cc1cccc(N)c1	active; inactive
S=P(N1CC1)(N1CC1)N1CC1	active
Cc1ccc(N=Nc2c(O)ccc3ccccc23)c([N+](=O)[O-])c1	active
CC(CCl)OC(C)CCl (configuration not stated)	active
S=[Se]	active
